# Patent US20130136778A1, “PTEROSTILBENE (PTER) FOR USE IN THE PREVENTION AND/OR TREATMENT OF SKIN DISEASES, DAMAGES OR INJURIES” (GREEN MOLECULAR, S.L., priority 2009, published 2013)
# Key:
# Assay type in all cases: in vivo
# SKH-1 mice [1] = test: Experimental atopic dermatitis induced by TNCB
# Protocol: Also, on certain specific days prior to sacrificing them, the mice were assessed by a veterinarian who analyzed the skin lesions, qualifying them in function of: • Erythema: redness of the skin conditioned by inflammation due to the excess of blood irrigation by the dilation of blood vessels. • Excoriation: or irritation of the skin with flaky aspect, increase in the descaling of the skin which could result in hyperkeratosis. • The depth of the lesion that could reach the dermis producing soars or ulcers. Each variable was evaluated on a scale of 0-4, 0, for none; 1, for mild; 2, for moderate; 3, marked; and 4, very marked. The addition of the 3 values of each mouse indicated the degree of inflammation. […] Furthermore, the continuous administration of TNCB ointment increased the production of T-lymphocytes, mastocytes and IgE in the serum, as it occurs among human patients with atopic dermatitis. […] Nonetheless, the objective evaluation of these characteristics is complex, and the measuring of the loss of transepidermal water (PTEA or TEWL) assessed through the Tewameter TM 210 system (CK electronics, Germany) is considered an indicator of the functions of cutaneous “barriers” (g/h/cm2). […] TEWL readings were performed continuously until the metrics were stabilized, which can produce between 30-60 seconds of readings.
# SKH-1 mice [2] = test: Anatomopathological study of the skin after chronic exposure to UV-B; settings: chronic UV-B irradiation
# Protocol: Histochemical techniques were used to study the skin tissues of the different procedures, at a microscopic level.
# The tissues were fixed in 4% formaldehyde in PBS over 24 h at 22° C. After the tissues were fixed, they had to be dehydrated in large amounts of ethanol and placed in a hydrophobic and xylene mixture to allow the paraffin to penetrate the tissues to provide sufficient consistency for slicing them thinly in a microtome.
# The samples in paraffin were processed with the microtome obtaining slices of about 5-10 μm. The samples were spread over a drop of gelatin at 37° C. and were collected in gelatinized slides.
# The protocol used for staining the samples was: • 1. Incubation with Mayer's Hematoxylin for 10-15 minutes. • 2. Wash under running water until bluish. • 3. Incubate with Eosin (1%) for 2-4 minutes. • 4. Eliminate the remaining eosin in ethanol 70° • 5. Dehydration. • 6. Rinse with xylol for 3 minutes. • 7. Let the trays dry out on the stove at 37°.
# In relation to the histopathological exam of the tumors induced by chronic irradiation to UV in the SKH1 mice, it was confirmed that the treatment with UV-B produced a strong acanthosis due primarily to the inflammatory process; this gave way to the first signs of tumors, mostly of carcinoma type and not melanoma.
# Both the reference compounds and the ones subject of this study (10 μmoles/mouse of polyphenols, or 200 μl of each photoprotector) were applied to the back of the mice for 20 minutes prior to their exposure to UV-B. Medium of groups of 20 mice. Every parameter was measured according to the degree of seriousness (+) light-(+++) serious.
# SKH-1 mice [3] = test: Skinfold thickness (edema) after acute UV-B exposure of 360 mJ/cm2
# Protocol: UVB Acute exposure protocols were used: Mice underwent a single exposure of 360 mJ/cm2. The study was conducted at 24 hours after exposure. This protocol was used to evaluate the photoprotective effect of the compounds studied. With the same acute-phase protocol mice from all groups were irradiated. Subsequently mice remained in the animal storage area for a week to see the evolution of the inflammatory response and edema. For the UVB exposure studies (chronic or acute) a topical administration to the back of the mouse was conducted. The commercial sunscreens were applied directly on the mouse. The polyphenols in the study were administered in a liposomal preparation diluted 1:1 with Carbopol polymer which will be the vehicle for these liposomes. Each polyphenol dose administered was 10 μmol/mouse, as free acid. • 1. Edema formation: skinfold thickness was determined with a caliper 24 hours after the first exposure. • 2. Study of the thickness of the epidermis after exposure to acute irradiation (360 mj/cm^2 24 h hours and 7 days after irradiation). • 3. Histological studies: measuring, in the pictures obtained from histological sections, the thickness of the epidermis. With the purpose of assessing the effects of the photoprotective compounds studied, female mice SKH-1 of between 6-8 weeks old were subjected to a single exposure of 360 mJ/cm. For the ultraviolet B (UVB) irradiation exposure, a camera specifically prepared, available at our laboratory was used (Crosslinker; Bio-Link BLX 254) equipped with 5 tubes that produce 80% of the UVB radiation, with a maximum emission of 312 nm. The two protocols of UV-B exposure used were: • Intense exposure after a single exposure of 360 mJ/cm^2. The study was carried out 24 hours after the exposure. This protocol was used to assess the photoprotective effects of the compounds studied. • Intense exposure after a single exposure of 360 mJ/cm^2. The study was carried out 1 week after the exposure. The mice were kept in the shed for a week to observe the evolution of the inflammatory and edematous response. As reference, several commercial photoprotective products were used ([…] Heliocare). The reference compounds as well as the products object of this study, were applied on the back of the mice for 20 minutes after or 20 minutes before the irradiation with UV-B, to determine if the reaction observed was due to an effect of the solar filter or not. […] The skinfold was measured by making a fold on the skin from the back of the mice, from the axillae to the hips; the fold was measured with a vernier caliper. The increase in the fold was calculated by the difference between the initial point, before the effects of the reaction, and the thickness in each point.
smiles,measurement,setting,value
"COc1cc(/C=C/c2ccc(O)cc2)cc(OC)c1 [PTER, 3,5-dimethoxy-4′-hydroxy-trans-resveratrol]",increase in the skinfold 24 hours after the first administration of TNCB,"SKH-1 mice [1]; FIG. 19, 10 μmoles polyphenols, 0.5 μmoles dexamethasone 24 h before 1% TNCB",decreased their inflammatory effect due to the TNCB agent
same,index of lesions (macroscopic assessment),"SKH-1 mice [1]; TNCB model, up to 4 applications of TNCB",produced less serious lesions than with the use of dexamethasone or with respect to the lack of treatment
same,"anti-inflammatory and anti-tumor formation effect, histopathological exam",SKH-1 mice [2],the compound with greatest benefits
same,formation of the edema (thickness of the skin) after severe UV-B exposure,SKH-1 mice [3]; FIG. 1,the formation of the edema was reduced
same,"skinfold thickness 24 h after irradiation, applied after UVB","SKH-1 mice [3]; FIG. 1, applied 20 min after","more efficient for the treatment of skin diseases, damages or injuries due to radiation, when applied after the exposure to UVB, than the commercial creams (Vichy, Heliocare and Isdin) and that RESV"
same,"skinfold thickness 24 h after irradiation, applied before UVB","SKH-1 mice [3]; FIG. 1, applied 20 min before","more efficient as photoprotector, when applied before the exposure to UVB, than the commercial creams (Vichy, Heliocare and Isdin) and that RESV"
